Source: patent US4166810A, “Derivatives of 4-desacetyl VLB C-3 carboxyhydrazide” (priority 1978, dated 1979)
Like-named read-outs stand apart in the source and are kept apart here.

How the values were obtained:
[1] = test system: Ridgeway osteogenic sarcoma; settings: Belgian Pat. No. 813,168; cited from earlier work
Gardner lymphosarcoma = settings: Belgian Pat. No. 813,168; cited from earlier work
P 1534(J) leukemia = settings: Belgian Pat. No. 813,168; cited from earlier work
transplanted tumors = settings: Belgian Pat. No. 813,168; cited from earlier work
[2] = test system: experimental malignancies; settings: animals; cited from earlier work
leukemias = settings: clinical trial in humans; cited from earlier work
[3] = test system: vincristine-resistant leukemias; settings: humans; cited from earlier work
[4] = humans; compared with vincristine; cited from earlier work
[5] = test system: Gardner lymphosarcoma (GLS); assay: Transplanted tumor growth inhibition in mice, Gardner lymphosarcoma (GLS); type: in vivo; settings: for inhibition in vivo at 0.125 mg/kg: 0.125 mg/kg × 10 days; for inhibition in vivo at 0.25 mg/kg: 0.25 mg/kg × 10 days
Procedure: (§1) The compounds of this invention are active in inhibiting the growth of transplanted tumors in mice and/or in prolonging the life of tumor-innoculated mice. […] The size of the tumor was measured at 7 or 11 days where the drug inhibited tumor growth. Where life-prolongation was concerned, extra life span of treated animals over that of control animals was determined.
(§2) The following table--Table 1--gives the results of experiments in which mice bearing transplanted tumors were treated successfully with a compound of this invention. In the table, column 1 gives the name of the compound; column 2, the transplanted tumor; column 3, the dose level or dose level range and the number of days the dosage was administered; and column 4, the percent inhibition of tumor growth or percent prolongation of survival time, e.g., B16 (ROS is an abbreviation for Ridgeway osteogenic sarcoma; GLS for Gardner lymphosarcoma; P 1534 (J) for a leukemia and B16 for a malignant melanoma.

B16 malignant melanoma = assay: Survival prolongation in mice bearing B16 malignant melanoma; type: in vivo
Procedure: as §1, §2

[6] = Mus musculus, 168 h, measured at 7 days, read-out: Percent Inhibition (of tumor growth), 7 days
[7] = Mus musculus, 264 h, measured at 11 days, read-out: Percent Inhibition (of tumor growth), 11 days

CCC1(O)CC2CN(CCc3c([nH]c4ccccc34)C(C(=O)OC)(c3cc4c(cc3OC)N(C)C3C(O)(C(=O)NN)C(O)C5(CC)C=CCN6CCC43C65)C2)C1 (stereo not drawn) [4-Desacetyl VLB C-3 carboxhydrazide]
activity against Ridgeway osteogenic sarcoma [1]: active
activity against Gardner lymphosarcoma (Gardner lymphosarcoma): active
activity against P 1534(J) leukemia (P 1534(J) leukemia): active
anti-tumor activity against transplanted tumors in mice (transplanted tumors): active anti-tumor agent against transplanted tumors in mice

CC[C@]1(O)C[C@H]2CN(CCc3c([nH]c4ccccc34)[C@@](C(=O)OC)(c3cc4c(cc3OC)N(C=O)[C@H]3[C@@](O)(C(=O)OC)[C@H](OC(C)=O)[C@]5(CC)C=CCN6CC[C@]43[C@@H]65)C2)C1 [vincristine, leurocristine]
activity in the treatment of experimental malignancies [2]: found active in the treatment of experimental malignancies in animals

CC[C@]1(O)C[C@@H]2CN(CCc3c([nH]c4ccccc34)[C@@](C(=O)OC)(c3cc4c(cc3OC)N(C)[C@H]3[C@@](O)(C(=O)OC)[C@H](OC(C)=O)[C@]5(CC)C=CCN6CC[C@]43[C@@H]65)C2)C1 [VLB, vincaleukoblastine]
activity in the treatment of experimental malignancies [2]: found active in the treatment of experimental malignancies in animals

CC[C@]1(O)C[C@@H]2CN(CCc3c([nH]c4ccccc34)[C@@](C(=O)OC)(c3cc4c(cc3OC)N(C)[C@H]3[C@@](O)(C(N)=O)[C@H](O)[C@]5(CC)C=CCN6CC[C@]43[C@@H]65)C2)C1 [vindesine, 4-desacetyl VLB C-3 carboxamide]
activity in leukemias (leukemias): found active in certain leukemias
effectiveness against vincristine-resistant leukemias [3]: apparently effective against vincristine-resistant leukemias
neurotoxicity [4]: less neurotoxicity than does vincristine

CCC1(O)CC2CN(CCc3c([nH]c4ccccc34)C(C(=O)OC)(c3cc4c(cc3OC)N(C)C3C(O)(C(=O)NNC(C)=O)C(O)C5(CC)C=CCN6CCC43C65)C2)C1 (stereo not drawn) [4-Desacetyl VLB C-3 N^2-acetylcarboxhydrazide]
Percent Inhibition (of tumor growth), 11 days ([5]; 0.5 mg/kg × 10 days, measured at 11 days): Toxic
inhibition in vivo at 0.125 mg/kg [5, 6]: 100%
inhibition in vivo at 0.25 mg/kg [5, 6]: 100%
inhibition in vivo at 0.5 mg/kg ([5]; Mus musculus, 168 h, 0.5 mg/kg × 10 days, measured at 7 days, read-out: Percent Inhibition (of tumor growth), 7 days): 100%
inhibition in vivo at 0.125 mg/kg [5, 7]: 93%
inhibition in vivo at 0.25 mg/kg [5, 7]: 100%
Percent Prolongation (of survival time) (B16 malignant melanoma; 0.15 mg/kg × 3 days): 71%
Percent Prolongation (of survival time) (B16 malignant melanoma; 0.3 mg/kg × 3 days): 100%
Percent Prolongation (of survival time) (B16 malignant melanoma; 0.6 mg/kg × 3 days): 109%
Percent Prolongation (of survival time) (B16 malignant melanoma; 0.9 mg/kg × 3 days): 84%
Percent Prolongation (of survival time) (B16 malignant melanoma; 1.2 mg/kg × 3 days): 69%

CCC1(O)CN2CCc3c([nH]c4ccccc34)C(C(=O)OC)(c3cc4c(cc3OC)N(C)C3C(O)(C(=O)OC)C(OC(C)=O)C5(CC)C=CCN6CCC43C65)CC(O)(C2)C1 (stereo not drawn) [leurocolombine]
activity in the treatment of experimental malignancies [2]: found active in the treatment of experimental malignancies in animals
